The values that follow come from PMC11435217, “In Vitro Studies of Genistein Lipophilic Derivatives as Potential UV Radiation Protectors” (Pharmaceuticals, 2024).

pEC50: −log10 of the molar value. Where two headings read alike, the source gives them in different places.

Data set [1] relates to Me45 cells. Briefly: Cell cycle analysis (flow cytometry, PI), Me45. Type of data set: cell-based, human. The settings on record: 5 µM, 48 h, not exposed to UV. On the procedure:
(§1) Cells from both cell lines were seeded in 12-well plates (2.5 × 10^4 cells/well) and incubated for 24 h at 37 °C in 5% CO2. The medium in the wells was replaced with fresh DMEM. Cells were treated with 5 µM of genistein, 4′-L-Gen, W5-Gen, or WBn-Gen for 48 h. Medium containing the test substances was removed, and the cells were collected by trypsinization (followed by neutralization of trypsin with medium) in Eppendorf tubes. Tubes were centrifuged (2000 rpm, 3 min), and the supernatant was removed. Subsequently, the fixation of cells in frozen 96% ethanol took place. The ethanol was removed, and cells were washed twice in PBS. Cells were suspended in tubes using 50 µL of […] RNase and then incubated for 15 min at room temperature. Cells were stained with […] propidium iodide solution in PBS and incubated for 20 min at room temperature. Directly before flow cytometry analysis, cells were agitated on a vortex mixer. Cell cycle analysis was performed using a BD FACS Canto flow cytometer, which counted 10,000 cells from every probe. The number of cells in each cell cycle phase was counted by measuring the […] intensity using Diva software (Bd FACSDiva v9.0, Becton Dickinson, Franklin Lakes, NJ, USA).
For orientation: A flow cytometer gives signals particle by particle.

A short description of the next data set: Lipophilicity (Log P). It counts as physicochemical. An excerpt: Table 2 Genistein and its derivatives investigated in the study. | column: Log P
Data set [2] deals with NHDF (normal human dermal fibroblasts). Kind of data set: Determination of EC50 values, MTS assay, NHDF. Type of data set: cell-based. The settings on record: read-out: EC50 (±SE). As to the method:
(§2) NHDFs were purchased from Lonza Group Ltd.—Lonza Verviers (Verviers, Belgium), and the human malignant melanoma (Me45) cell line was obtained from the Maria Skłodowska-Curie Memorial Cancer Center and National Institute of Oncology Branch Gliwice, Poland. […] During the culturing periods, cells were passaged before confluency reached 80% in culture flasks and washed regularly with PBS.
(§3) The EC50 values of genistein and its derivatives for both cell lines were determined using the MTS assay (Cell Titer 96 AQueous One Solution Cell Proliferation Assay, Promega, Madison, WI, USA). Cells were seeded in 96-well plates (5 × 10^3 cells/well) and incubated for 24 h at 37 °C in 5% CO2. Subsequently, the cells were treated with twelve concentrations of each compound ranging from 1–100 µM for 48 h at 37 °C in 5% CO2. Afterwards, the medium, including the investigated compounds, was removed from all wells and replaced with PBS. In total, 20 µL of MTS was added to each well. Plates were then incubated for 2 h at 37 °C in 5% CO2. The absorbance was measured at λ = 490 nm using an Epoch microplate reader (BioTek, Winooski, VT, USA). EC50 values were calculated using Matlab software (Matlab R2022a, MathWorks, Natick, MA, USA).
In general terms: Formazan colour is commonly taken as a measure of viable cells.

Data set [3] has as its system Me45 (human malignant melanoma cell line). Kind of data set: Determination of EC50 values, MTS assay, Me45. It counts as cell-based. The conditions noted are these: read-out: EC50 (±SE). As to the method:
as §2, §3

Data set [4] is described as follows: Protective potential against UV irradiation, MTS assay, Me45. Type of data set: cell-based. The conditions noted are these: human. As to the method:
Cells from each cell line were seeded in three groups (0, 24, and 48 h) in 96-well plates (5 × 10^3 cells/well) and incubated for 24 h at 37 °C in 5% CO2. Afterwards, the medium in all wells was removed, and cells were treated with 5 µM of genistein, 4′-L-Gen, W-Bn-Gen, or W5-Gen. The chemicals added to the 0 h time point plates were dissolved in PBS. DMEM was used to prepare the chemical solutions for the 24- and 48-h plates.
After incubation, half of the wells on each plate were irradiated with UVC 2 kJ/m^2 in a Crosslinker CL-1000 UV (UVP) device (Ultra-Violet Products Ltd., Cambridge, UK). The MTS assay was performed immediately after irradiation for 0 h plates and after 24 and 48 h of incubation for the other two time points. Before conducting the MTS test, the medium in the 24 and 48 h plates was discarded and replaced with PBS.

Data set [5] deals with NHDFs. Briefly: Cell cycle analysis (flow cytometry, PI), NHDF. It counts as cell-based, human. The conditions noted are these: 5 µM, 48 h, not exposed to UV. On the procedure: as §1
For data set [6], the system named is NHDFs. Briefly: Genotoxicity, micronucleus (MN) assay, NHDF. The settings on record: 48 h, 5 µM. It counts as cell-based, human. On the procedure: (§4) Both cell types were seeded in 6-well plates (2.5 × 10^4 cells/well) and incubated for 24 h at 37 °C in 5% CO2. After incubation, the medium in the wells was changed to 5 µM solutions of genistein, 4′-L-Gen, W-Bn-Gen, or W5-Gen in DMEM and incubated for 1 h at 37 °C in 5% CO2. Half of the treated cells were irradiated, as described above. Afterwards, all the cells were treated with […] cytochalasin B and incubated for 48 h at 37 °C in 5% CO2. Subsequently, cells from each well were trypsinized, washed twice in PBS, and mixed with frosted (−20 °C) Carnoy’s solution (methanol: acetic acid, v/v 3:1). After 2 h, 50 µL of each suspension was placed on a microscopic slide and dried. Before microscopic analysis, slides were stained with 2 µg/mL DAPI (dissolved in DMSO) and covered with cover glasses. Slides were observed using a fluorescent microscope (Zeiss Axio Imager. M1 with EC Plan- NEOFLUAR 40× objective, Zeiss, Oberkochen, Germany). A total of 500 cells on each slide were counted, taking into account binucleated, binucleated with MN, mononucleated, and apoptotic cells. The NDI was calculated using a modified method by Eastmond and Tucker (1989) according to the following Equation (2):(2) NDI=MNu+2(Bnu+BNuMN)/∑cells where MNu is the number of cells with one nucleus, BNu is the number of binucleated cells, and BNuMN is the number of binucleated cells with MN.

Data set [7] has as its system Me45 cells. Kind of data set: Genotoxicity, micronucleus (MN) assay, Me45. It counts as cell-based, human. The settings on record: 5 µM, 48 h, exposed and not exposed to UV radiation. As to the method: as §4
Data set [8] has as its system estrogen receptors ERα and ERβ. The conditions noted are these: cited from earlier work.
[9] abbreviates: 48 h treatment, 1–100 µM, concentration causing 50% toxicity.
The mark [10] stands for this setting: Me45, 48 h treatment, 1–100 µM, concentration causing 50% toxicity.

With `CCCCCCCCCCCC(=O)Oc1ccc(-c2coc3cc(O)cc(O)c3c2=O)cc1` [4′-L-Gen, 4′-genistein dodecanate], the “suppression of the G1 phase, ranking (in words)” value in the data set with Me45 cells [1] was “weakest effect”. For the same molecule, the logP in “Lipophilicity (Log P)” worked out at 5.71. Moreover, the pEC50 (commonly −log10 of the EC50, conventionally taken in molar units) in [2] (48 h) was 5.19; in [3] (48 h), 4.22. Besides, the mortality (commonly the percentage killed) at 0 h, 5 µM in [4] is roughly 10%. The viability (as a rule, the share of living cells, or the viability signal relative to a control) at 48 h, 5 µM in data set [4] (Me45, 5 µM, after 48 h, both exposed and not exposed to UV radiation, read-out: viability of treated cells much lower than in the control samples) was roughly 50%.

For the molecule `O=C(OCc1ccccc1)Oc1cc(O)c2c(=O)c(-c3ccc(O)cc3)coc2c1` [WBn-Gen, bezyl-7-O-genistein carbonate], in the data set with NHDFs [5], the “suppression of the cell cycle in the G2/M phase, cells compared to the controls” value is reported as 6%. Also, the “DNA damage (percentage of binucleated cells with MN)” value in the data set with NHDFs [6] (human) was 10.5–11%. Moreover, in the data set “Lipophilicity (Log P)”, the logP was 4.04. The pEC50 in data set [2] (setting [9]) is 5.22; in [3] (setting [10]), 4.15.

In “Lipophilicity (Log P)”, `CCCCCOC(=O)Oc1cc(O)c2c(=O)c(-c3ccc(O)cc3)coc2c1` [Compound W5-Gen, n-pentyl-7-O-genistein carbonate] came in with a logP of 3.96. Further, the values for the pEC50 in data set [2] (setting [9]) and in data set [3] (setting [10]) were 5.25 and 4.04, respectively.

As for `O=c1c(-c2ccc(O)cc2)coc2cc(O)cc(O)c12` [Gen, Genistein], the “effect on number of cells with MN (in words)” value was “decreased the number of cells with MN” with NHDFs [6] (NHDF) and “increases the number of cells with MN” in the data set on Me45 cells [7]. Moreover, the “binding to ERβ versus ERα, times more strongly” value in [8] is given as 20–30 times. Also, the “suppression of the G1 phase, ranking (in words)” value in the data set on Me45 cells [1] was “strongest effect”. Also, the logP in the data set “Lipophilicity (Log P)” (method not stated, read-out: Log P) came out at 1.74. Besides, the pEC50 in [2] (48 h) was 5.07; in data set [3] (48 h), 4.11. Besides, in [4] (Me45, 5 µM, shortest incubation (first time point, before the 24 h reading), read-out: mortality compared to control untreated cells), the mortality at 0 h, 5 µM came out at 50%.
